The subject of test [1] is D4586 (Zea mays BIO3-BIO1 C372D) containing tobacco plants. In words: Visual herbicide damage score on transgenic tobacco D4586 (pCMP ZmBioDA C372D). Type of test: in vivo. Particulars: 600 gai/ha; 7 DAT; each table row is one D4586 transgenic plant. The text has this:
(§1) Populations of transgenic tobacco comprising 20-30 transgenic events per plant transformation constructs were generated as described in Example 1. These lines were clonally propagated and 1 clone per event was sprayed with 600 g ai/ha compound L or A+0.2% Genapol X080 with a spray volume of 200 L/Ha (“g ai/ha” refers to grams of active compound per hectare).
(§2) Herbicidal damage was visually assessed across the population and a herbicide damage score given at 7, 14 and 21 days. A score of 0 indicates no visible damage or stunting whereas a score of 100 indicates a complete death of the plant. 20 transgenic events (i.e. individual transgenic plants) from each GM tobacco line were transplanted to soil 1 week prior to spraying with BIO3-BIO1inhibiting compounds. WT tobacco was included as a control.
(§3) To determine if overexpression of variants detailed in Example 7 confer resistance to BIO3-BIO1 inhibiting compounds when expressed in plants, GM tobacco lines were produced using the methods in Example 1 and tested with BIO3-BIO1 inhibiting compounds.
(§4) Transgenic tobacco plants expressing the Arabidopsis thaliana BIO3-BIO1 variants C388D (SEQ ID NO:26), P421L(SEQ ID NO:41), F348C (SEQ ID NO:28), G700S (SEQ ID NO:39), W392S (SEQ ID NO:70) and the Zea mays BIO3-BIO1 variant C372D (SEQ ID NO:324). Populations of transgenic tobacco were sprayed and assessed as in Example 2

For test [2], the target named is T1, Arabidopsis thaliana BioDA variant enzymes (Arabidopsis thaliana, UniProt B0F481, C388D).
T1 construct: with the predicted N-terminal mitochondrial transit peptide removed; 6xHis-tag (N); thrombin cleavage site (N); made in house; host or cells: E. coli BL21 (DE3) bioA
The test is described as follows: biochemical. As to the method:
(§5) These plasmids were then expressed in E. coli BL21 (DE3) bioA with 50 μg/mL kanamycin and 25 μg/mL chloramphenicol selection. Overnight cultures grown at 37° C. were used to inoculate 8×500 mL AIM in shake flasks at a ratio of 1:100. Cultures were grown at 37° C., 200 rpm for 3.5 hours and then overnight at 20° C. Cells were harvested by centrifugation for 30 minutes at 10 000 g. Cells were stored at −80° C. until extraction. 30 g of cell pellet from was thawed in 120 mL of IMAC buffer A (20 mM HEPES pH7.5, 25 mM imidazole, 500 mM sodium chloride, 0.15 mM pyridoxal phosphate, 0.5 mM TCEP, 1× complete Protease Inhibitor Tablet (Roche)). The resuspension was passed through a cell disrupter at 18 000 PSI and centrifuged at 50 000 g for 25 minutes at 4° C. The His-tagged BIO3-BIO1 protein was purified from the extract supernatant on an AKTA avant chromatography system (Cytiva) using a HisTrap FF column and eluted in IMAC buffer B ((20 mM HEPES pH7.5, 500 mM imidazole, 500 mM sodium chloride, 0.15 mM pyridoxal phosphate, 0.5 mM TCEP) followed by SEC using a HiLoad 26/60 Superdex200 column in SEC buffer (25 mM HEPES pH7.5, 150 mM sodium chloride, 0.15 mM pyridoxal phosphate, 0.5 mM TCEP). Protein concentration was measured and calculated using the absorbance at 280 nm. Extracts were diluted 1 in 4 and 10 uL was analysed by SDS PAGE.
(§6) To measure BIO3-BIO1 mutant enzyme activity in the presence of herbicide, herbicides were incubated with 20 μL of enzyme mix (100 mM EPPS pH 8.6, 0.1 mM pyridoxal phosphate, 0.1 mg/mL BSA, 50 nM BIO3-BIO1 enzyme) for 10 minutes at 20° C. in a well of a 96-well half-area black plate, followed by the addition of 20 μL of substrate mix (final concentration of 100 mM EPPS pH 8.6, 0.1 mM pyridoxal phosphate, 0.1 mg/mL BSA, 100 μM spermidine, 20 μM KAPA, 100 mM NaCO3) and further incubation for 75 minutes at 20° C. The reaction was terminated by the addition of 50 μL of derivatisation mix (final concentration of 250 mM borate NaOH pH 9.4, 3.6 mM o-phthalaldehyde, 7 mM β-mercaptoethanol, 17% (v/v) ethanol, 3.6% (v/v) methanol). The fluorescent product produced by the reaction of DAPA with o-phthalaldehyde and 7 mM β-mercaptoethanol was measured at 470 nm after excitation at 410 nm.
(§7) For IC50 calculations, appropriate dose responses of compounds L, M, B, K and G were used. Calculated percentage inhibitions were then input into GraphPad Prism 7 and IC50s calculated using the non-linear regression (vs. normalised response) equation.

The target in test [3] is T2, Arabidopsis thaliana BioDA variant enzymes (Arabidopsis thaliana, UniProt B0F481).
T2 construct: with the predicted N-terminal mitochondrial transit peptide removed; 6xHis-tag (N); thrombin cleavage site (N); made in house; host or cells: E. coli BL21 (DE3) bioA
The test is described as follows: biochemical. To be noted: WT Arabidopsis thaliana BioDA (SEQ ID NO 294); read-out: IC50. The procedure: as §5, §6, §7

Test [4] relates to D4585 (Arabidopsis thaliana BIO3-BIO1 P421L) containing tobacco plants. The test is described as follows: Visual herbicide damage score on transgenic tobacco D4585 (pCMP AtBioDA P421L). In kind it is in vivo. Particulars: 600 gai/ha; 21 DAT; one D4585 transgenic plant.
Description: as §1, §2, §3, §4

Where “and” joins values, the source holds several entries; their conditions need not be identical. Equal entries are not always repeated.

T1 sequence (B0F481 24-833 C388D): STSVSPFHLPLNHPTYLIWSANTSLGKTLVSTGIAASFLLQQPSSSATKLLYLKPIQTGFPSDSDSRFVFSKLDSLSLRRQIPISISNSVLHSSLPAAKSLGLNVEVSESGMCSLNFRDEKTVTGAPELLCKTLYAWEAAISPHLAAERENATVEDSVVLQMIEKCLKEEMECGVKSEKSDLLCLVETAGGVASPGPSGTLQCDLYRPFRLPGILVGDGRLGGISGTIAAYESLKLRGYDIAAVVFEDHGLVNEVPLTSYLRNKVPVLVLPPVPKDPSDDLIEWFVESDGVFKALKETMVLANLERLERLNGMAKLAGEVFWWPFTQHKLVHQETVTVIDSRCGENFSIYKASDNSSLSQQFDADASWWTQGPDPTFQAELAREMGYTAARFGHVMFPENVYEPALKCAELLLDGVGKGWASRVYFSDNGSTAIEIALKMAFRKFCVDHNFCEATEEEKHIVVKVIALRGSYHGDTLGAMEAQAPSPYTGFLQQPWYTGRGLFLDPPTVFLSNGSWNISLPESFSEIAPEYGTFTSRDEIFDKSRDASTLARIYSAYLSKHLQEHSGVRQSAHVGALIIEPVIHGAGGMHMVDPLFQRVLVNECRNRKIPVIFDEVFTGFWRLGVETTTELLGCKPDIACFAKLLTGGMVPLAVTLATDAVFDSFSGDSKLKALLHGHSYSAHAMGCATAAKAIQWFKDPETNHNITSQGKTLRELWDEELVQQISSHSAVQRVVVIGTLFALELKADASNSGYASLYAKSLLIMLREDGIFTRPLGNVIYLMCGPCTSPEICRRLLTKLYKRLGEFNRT

One may read the IC50 as the midpoint of a concentration-inhibition curve. Compound `CCn1c(Cn2ccc(C(F)(F)F)n2)cc(=O)c(C(=O)O)c1-c1ccc(Cl)c(Cl)c1` [Compound L, 2-(3,4-dichlorophenyl)-1-ethyl-4-oxo-6-[[3-(trifluoromethyl)pyrazol-1-yl]methyl]pyridine-3-carboxylic acid] showed a percentage of damage in test [1] of 10%. In addition, the values for the IC50 in test [2] and in test [3] were 100 µM and 145 nM, respectively.
`CC(O)C(N)CCCCC(=O)O.Cl` (stereo not drawn) [Compound B, [5-carboxy-1-(1-hydroxyethyl)pentyl]ammonium chloride]: the results for the IC50 in test [2] and in test [3] were 29.2 µM and 2810 nM, respectively.
`CCOC(=O)c1nn(-c2ccc3c(c2)OC(F)(F)C(F)(F)O3)c2cccc(C(C)=O)c2c1=O` [Compound A, ethyl 5-acetyl-4-oxo-1-(2,2,3,3-tetrafluoro-1,4-benzodioxin-6-yl)cinnoline-3-carboxylate]: the percentage of damage in test [4] was 5% and 0% and 2%.

These data come from patent US20260226493A1, “HERBICIDE RESISTANT PLANTS” (SYNGENTA CROP PROTECTION AG, priority 2023, published 2026).
